Legend:
Test in all cases: cells
[1] = tested on: COLO-800; assay type: functional, cell-based, Homo sapiens; conditions: Homo sapiens, COLO-800;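 further: growth inhibition of COLO-800 cells, read out with a cell viability assay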
Description: SANGER: Inhibition of human COLO-800 cell growth in a cell viability assay.

[2] = tested on: COLO-824; assay type: functional, cell-based, Homo sapiens; conditions: Homo sapiens, COLO-824
Description: SANGER: Inhibition of human COLO-824 cell growth in a cell viability assay.

[3] = tested on: COR-L88; assay type: functional, cell-based, Homo sapiens; conditions: Homo sapiens, COR-L88;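 further: growth inhibition of COR-L88 cells, read out with a cell viability assay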
Description: SANGER: Inhibition of human COR-L88 cell growth in a cell viability assay.

[4] = tested on: CW-2; assay type: functional, cell-based, Homo sapiens; conditions: Homo sapiens, CW-2;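 further: growth inhibition of CW-2 cells, read out by a cell viability assay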
Description: SANGER: Inhibition of human CW-2 cell growth in a cell viability assay.

[5] = tested on: DB; assay type: functional, cell-based, Homo sapiens; conditions: Homo sapiens, DB
Description: SANGER: Inhibition of human DB cell growth in a cell viability assay.

[6] = tested on: ES7; assay type: functional, cell-based, Homo sapiens; conditions: Homo sapiens, ES7;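 further: growth inhibition of cultured human ES7 cells, read out as cell viability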
Description: SANGER: Inhibition of human ES7 cell growth in a cell viability assay.

[7] = tested on: EW-11; assay type: functional, cell-based, Homo sapiens; conditions: Homo sapiens, EW-11;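 further: growth inhibition of human EW-11 cells, measured with a cell viability assay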
Description: SANGER: Inhibition of human EW-11 cell growth in a cell viability assay.

[8] = tested on: EW-13; assay type: functional, cell-based, Homo sapiens; conditions: Homo sapiens, EW-13; read-out: IC50;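 further: growth inhibition of EW-13 cells, read out with a cell viability assay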
Description: SANGER: Inhibition of human EW-13 cell growth in a cell viability assay.

[9] = tested on: GI-ME-N; assay type: functional, cell-based, Homo sapiens; conditions: Homo sapiens, GI-ME-N;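 further: growth inhibition of human GI-ME-N cells, read out with a cell viability assay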
Description: SANGER: Inhibition of human GI-ME-N cell growth in a cell viability assay.

[10] = tested on: GOTO; assay type: functional, cell-based, Homo sapiens; conditions: Homo sapiens, GOTO;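 further: growth inhibition of GOTO cells, read out by a cell viability assay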
Description: SANGER: Inhibition of human GOTO cell growth in a cell viability assay.

[11] = tested on: GR-ST; assay type: functional, cell-based, Homo sapiens; conditions: Homo sapiens, GR-ST
Description: SANGER: Inhibition of human GR-ST cell growth in a cell viability assay.

[12] = tested on: HCC2218; assay type: functional, cell-based, Homo sapiens; conditions: Homo sapiens, HCC2218;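 further: cell viability assay read-out, with IC50 given as the concentration that inhibits growth of the cell line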
Description: SANGER: Inhibition of human HCC2218 cell growth in a cell viability assay.

[13] = tested on: HCE-T; assay type: functional, cell-based, Homo sapiens; conditions: Homo sapiens, HCE-T;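 further: cell viability assay read-out, reporting inhibition of HCE-T cell growth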
Description: SANGER: Inhibition of human HCE-T cell growth in a cell viability assay.

[14] = tested on: HD-MY-Z; assay type: functional, cell-based, Homo sapiens; conditions: Homo sapiens, HD-MY-Z;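 further: growth inhibition of HD-MY-Z cells, read out with a cell viability assay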
Description: SANGER: Inhibition of human HD-MY-Z cell growth in a cell viability assay.

[15] = tested on: HH; assay type: functional, cell-based, Homo sapiens; conditions: Homo sapiens, HH
Description: SANGER: Inhibition of human HH cell growth in a cell viability assay.

[16] = tested on: HT-144; assay type: functional, cell-based, Homo sapiens; conditions: Homo sapiens, HT-144
Description: SANGER: Inhibition of human HT-144 cell growth in a cell viability assay.

[17] = tested on: K562; assay type: functional, cell-based, Homo sapiens; conditions: Homo sapiens, K562
Description: SANGER: Inhibition of human K-562 cell growth in a cell viability assay.

[18] = tested on: KM-H2; assay type: functional, cell-based, Homo sapiens; conditions: Homo sapiens, KM-H2;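 further: growth inhibition of KM-H2 cells, read out by a cell viability assay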
Description: SANGER: Inhibition of human KM-H2 cell growth in a cell viability assay.

[19] = tested on: KNS-42; assay type: functional, cell-based; conditions: Homo sapiens;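 further: growth inhibition of KNS-42 cells, read out with a cell viability assay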
Description: SANGER: Inhibition of human KNS-42 cell growth in a cell viability assay.

[20] = tested on: KP-N-YS; assay type: functional, cell-based, Homo sapiens; conditions: Homo sapiens, KP-N-YS;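 further: cell viability assay measuring inhibition of cell line growth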
Description: SANGER: Inhibition of human KP-N-YS cell growth in a cell viability assay.

[21] = tested on: LB2241-RCC; assay type: functional, cell-based, Homo sapiens; conditions: Homo sapiens, LB2241-RCC;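 further: cell viability assay measuring how strongly the cultured human renal carcinoma line is prevented from growing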
Description: SANGER: Inhibition of human LB2241-RCC cell growth in a cell viability assay.

[22] = tested on: Lu-65; assay type: functional, cell-based, Homo sapiens; conditions: Homo sapiens, Lu-65;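 further: growth inhibition of Lu-65 cancer cells, read out by a cell viability assay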
Description: SANGER: Inhibition of human LU-65 cell growth in a cell viability assay.

[23] = tested on: LXF-289 cell line; assay type: functional, cell-based; conditions: Homo sapiens
Description: SANGER: Inhibition of human LXF-289 cell growth in a cell viability assay.

[24] = tested on: MHH-NB-11; assay type: functional, cell-based, Homo sapiens; conditions: Homo sapiens, MHH-NB-11;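 further: growth inhibition of human MHH-NB-11 cells, read out by a cell viability assay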
Description: SANGER: Inhibition of human MHH-NB-11 cell growth in a cell viability assay.

[25] = tested on: MLMA; assay type: functional, cell-based, Homo sapiens; conditions: Homo sapiens, MLMA;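 further: growth inhibition of MLMA cells (human), determined through a cell viability readout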
Description: SANGER: Inhibition of human MLMA cell growth in a cell viability assay.

[26] = tested on: MMAC-SF; assay type: functional, cell-based; conditions: Homo sapiens;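 further: growth inhibition of human MMAC-SF cells, read out with a cell viability assay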
Description: SANGER: Inhibition of human MMAC-SF cell growth in a cell viability assay.

[27] = tested on: MPP-89; assay type: functional, cell-based, Homo sapiens; conditions: Homo sapiens, MPP-89;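 further: growth inhibition of human MPP-89 cells, read out with a cell viability assay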
Description: SANGER: Inhibition of human MPP-89 cell growth in a cell viability assay.

[28] = tested on: MSTO-211H; assay type: functional, cell-based, Homo sapiens; conditions: Homo sapiens, MSTO-211H
Description: SANGER: Inhibition of human MSTO-211H cell growth in a cell viability assay.

[29] = tested on: NB5; assay type: functional, cell-based, Homo sapiens; conditions: Homo sapiens, NB5;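 further: growth inhibition of NB5 cells, read out as cell viability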
Description: SANGER: Inhibition of human NB5 cell growth in a cell viability assay.

[30] = tested on: NCI-H1304; assay type: functional, cell-based, Homo sapiens; conditions: Homo sapiens, NCI-H1304;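 further: growth inhibition of the cancer cell line, measured in a cell viability assay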
Description: SANGER: Inhibition of human NCI-H1304 cell growth in a cell viability assay.

[31] = tested on: NCI-H1838; assay type: functional, cell-based, Homo sapiens; conditions: Homo sapiens, NCI-H1838;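 further: growth inhibition of NCI-H1838 cells, determined with a cell viability readout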
Description: SANGER: Inhibition of human NCI-H1838 cell growth in a cell viability assay.

[32] = tested on: NCI-H209; assay type: functional, cell-based, Homo sapiens; conditions: Homo sapiens, NCI-H209;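 further: growth inhibition of human NCI-H209 cells, measured by a cell viability assay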
Description: SANGER: Inhibition of human NCI-H209 cell growth in a cell viability assay.

[33] = tested on: NCI-H23; assay type: functional, cell-based, Homo sapiens; conditions: Homo sapiens, NCI-H23;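 further: cell viability assay measuring growth inhibition of NCI-H23 cells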
Description: SANGER: Inhibition of human NCI-H23 cell growth in a cell viability assay.

[34] = tested on: NCI-H446; assay type: functional, cell-based, Homo sapiens; conditions: Homo sapiens, NCI-H446;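 further: growth inhibition of NCI-H446 cells determined by a cell viability assay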
Description: SANGER: Inhibition of human NCI-H446 cell growth in a cell viability assay.

[35] = tested on: NCI-H747; assay type: functional, cell-based, Homo sapiens; conditions: Homo sapiens, NCI-H747;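 further: growth inhibition of human NCI-H747 cells, read out by a cell viability assay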
Description: SANGER: Inhibition of human NCI-H747 cell growth in a cell viability assay.

[36] = tested on: NCI-N87; assay type: functional, cell-based; conditions: Homo sapiens;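 further: growth inhibition of human NCI-N87 cells, read out with a cell viability assay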
Description: SANGER: Inhibition of human NCI-N87 cell growth in a cell viability assay.

[37] = tested on: SNU1; assay type: functional, cell-based, Homo sapiens; conditions: Homo sapiens, SNU1;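 further: growth inhibition of human NCI-SNU-1 cells, measured with a cell viability assay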
Description: SANGER: Inhibition of human NCI-SNU-1 cell growth in a cell viability assay.

[38] = tested on: SNU-5; assay type: functional, cell-based, Homo sapiens; conditions: Homo sapiens, SNU-5;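 further: cell viability readout used to measure growth inhibition in human NCI-SNU-5 cells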
Description: SANGER: Inhibition of human NCI-SNU-5 cell growth in a cell viability assay.

[39] = tested on: NH-12; assay type: functional, cell-based, Homo sapiens; conditions: Homo sapiens, NH-12;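 further: growth inhibition of NH-12 cells, read out with a cell viability assay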
Description: SANGER: Inhibition of human NH-12 cell growth in a cell viability assay.

[40] = tested on: OMC-1; assay type: functional, cell-based, Homo sapiens; conditions: Homo sapiens, OMC-1;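 further: growth inhibition of the OMC-1 cell line, measured by a cell viability assay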
Description: SANGER: Inhibition of human OMC-1 cell growth in a cell viability assay.

[41] = tested on: OS-RC-2; assay type: functional, cell-based, Homo sapiens; conditions: Homo sapiens, OS-RC-2;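 further: growth inhibition of human OS-RC-2 cells, measured by a cell viability assay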
Description: SANGER: Inhibition of human OS-RC-2 cell growth in a cell viability assay.

[42] = tested on: RCC10RGB; assay type: functional, cell-based, Homo sapiens; conditions: Homo sapiens, RCC10RGB;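 further: growth inhibition of human RCC10RGB cells, read out by a cell viability assay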
Description: SANGER: Inhibition of human RCC10RGB cell growth in a cell viability assay.

[43] = tested on: SBC-1; assay type: functional, cell-based, Homo sapiens; conditions: Homo sapiens, SBC-1;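 further: cell viability assay measuring growth inhibition of the SBC-1 cell line, IC50 being the concentration that halves growth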
Description: SANGER: Inhibition of human SBC-1 cell growth in a cell viability assay.

[44] = tested on: SF-268; assay type: functional, cell-based, Homo sapiens; conditions: Homo sapiens, SF-268;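 further: growth inhibition of SF-268 cells determined with a cell viability assay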
Description: SANGER: Inhibition of human SF268 cell growth in a cell viability assay.

[45] = tested on: SJSA-1; assay type: functional, cell-based, Homo sapiens; conditions: Homo sapiens, SJSA-1;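 further: growth inhibition of human SJSA-1 cells, read out through a cell viability measurement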
Description: SANGER: Inhibition of human SJSA-1 cell growth in a cell viability assay.

[46] = tested on: SK-MEL-2; assay type: functional, cell-based, Homo sapiens; conditions: Homo sapiens, SK-MEL-2;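 further: growth inhibition of human SK-MEL-2 cells measured with a cell viability assay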
Description: SANGER: Inhibition of human SK-MEL-2 cell growth in a cell viability assay.

[47] = tested on: SW872; assay type: functional, cell-based, Homo sapiens; conditions: Homo sapiens, SW872;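 further: growth inhibition of SW872 cells, read out by a viability assay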
Description: SANGER: Inhibition of human SW872 cell growth in a cell viability assay.

[48] = tested on: ALL-PO; assay type: functional, cell-based, Homo sapiens; conditions: Homo sapiens, ALL-PO;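 further: growth inhibition of ALL-PO cells, read out by a cell viability assay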
Description: SANGER: Inhibition of human ALL-PO cell growth in a cell viability assay.

[49] = tested on: Becker; assay type: functional, cell-based, Homo sapiens; conditions: Homo sapiens, Becker;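 further: growth inhibition of Becker cells, read out with a cell viability assay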
Description: SANGER: Inhibition of human Becker cell growth in a cell viability assay.

[50] = tested on: CGTH-W-1; assay type: functional, cell-based, Homo sapiens; conditions: Homo sapiens, CGTH-W-1;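 further: growth inhibition of human CGTH-W-1 cells measured by cell viability assay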
Description: SANGER: Inhibition of human CGTH-W-1 cell growth in a cell viability assay.

Structure (SMILES): COc1ccc(-c2cc3nccn3c(Nc3ncccc3C(N)=O)n2)cc1OC
- IC50 [1]: > 8 µM
- IC50 [2]: > 8 µM
- IC50 [3]: > 8 µM
- IC50 [4]: > 8 µM
- IC50 [5]: 6.64 µM
- IC50 [6]: 1090 nM
- IC50 [7]: > 8 µM
- IC50 [8]: 1470 nM
- IC50 [9]: > 8 µM
- IC50 [10]: 3.42 µM
- IC50 [11]: 3.7 µM
- IC50 [12]: > 8 µM
- IC50 [13]: > 8 µM
- IC50 [14]: > 8 µM
- IC50 [15]: > 8 µM
- IC50 [16]: 3.72 µM
- IC50 [17]: > 8 µM
- IC50 [18]: > 8 µM
- IC50 [19]: > 8 µM
- IC50 [20]: 7 µM
- IC50 [21]: 4.93 µM
- IC50 [22]: 2220 nM
- IC50 [23]: > 8 µM
- IC50 [24]: > 8 µM
- IC50 [25]: 993 nM
- IC50 [26]: > 8 µM
- IC50 [27]: 1670 nM
- IC50 [28]: > 8 µM
- IC50 [29]: > 8 µM
- IC50 [30]: > 8 µM
- IC50 [31]: > 8 µM
- IC50 [32]: > 8 µM
- IC50 [33]: > 8 µM
- IC50 [34]: 4.99 µM
- IC50 [35]: > 8 µM
- IC50 [36]: > 8 µM
- IC50 [37]: 1990 nM
- IC50 [38]: > 8 µM
- IC50 [39]: 2490 nM
- IC50 [40]: > 8 µM
- IC50 [41]: 1170 nM
- IC50 [42]: > 8 µM
- IC50 [43]: > 8 µM
- IC50 [44]: 2830 nM
- IC50 [45]: 3.77 µM
- IC50 [46]: 1890 nM
- IC50 [47]: 1180 nM
- IC50 [48]: 557 nM
- IC50 [49]: > 8 µM
- IC50 [50]: 3.37 µM

Structure (SMILES): COC(=O)[C@H](CCSC)NC(=O)c1ccc(NC[C@@H](N)CS)cc1-c1ccccc1
- IC50 [1]: > 1.02 µM
- IC50 [2]: > 1.02 µM
- IC50 [3]: > 1.02 µM
- IC50 [4]: > 1.02 µM
- IC50 [5]: > 1.02 µM
- IC50 [6]: > 1020 nM
- IC50 [7]: > 1.02 µM
- IC50 [8]: > 1020 nM
- IC50 [9]: > 1.02 µM
- IC50 [10]: > 1.02 µM
- IC50 [11]: > 1.02 µM
- IC50 [12]: > 1.02 µM
- IC50 [13]: > 1.02 µM
- IC50 [14]: > 1.02 µM
- IC50 [15]: > 1.02 µM
- IC50 [16]: > 1.02 µM
- IC50 [17]: > 1.02 µM
- IC50 [18]: > 1.02 µM
- IC50 [19]: > 1.02 µM
- IC50 [20]: > 1.02 µM
- IC50 [21]: > 1.02 µM
- IC50 [22]: > 1020 nM
- IC50 [23]: > 1.02 µM
- IC50 [24]: > 1.02 µM
- IC50 [25]: > 1020 nM
- IC50 [26]: > 1.02 µM
- IC50 [27]: > 1020 nM
- IC50 [28]: > 1.02 µM
- IC50 [29]: > 1.02 µM
- IC50 [30]: > 1.02 µM
- IC50 [31]: > 1.02 µM
- IC50 [32]: > 1.02 µM
- IC50 [33]: > 1.02 µM
- IC50 [34]: > 1.02 µM
- IC50 [35]: > 1.02 µM
- IC50 [36]: > 1.02 µM
- IC50 [37]: > 1020 nM
- IC50 [38]: > 1.02 µM
- IC50 [39]: > 1020 nM
- IC50 [40]: > 1.02 µM
- IC50 [41]: > 1020 nM
- IC50 [42]: > 1.02 µM
- IC50 [43]: > 1.02 µM
- IC50 [44]: > 1020 nM
- IC50 [45]: > 1.02 µM
- IC50 [46]: > 1020 nM
- IC50 [47]: > 1020 nM
- IC50 [48]: > 1020 nM
- IC50 [49]: > 1.02 µM
- IC50 [50]: > 1.02 µM
